Article PMC5384453, “A multi-functional PEGylated gold(III) compound: potent anti-cancer properties and self-assembly into nanostructures for drug co-delivery” (Chemical Science, 2016)
Like-named read-outs stand apart in the source and are kept apart here.

Tests used:
A2780adr = assay: In vitro cytotoxicity, MTT assay; type: cell-based, human; conditions: for IC50: A2780adr; for Resistance found in A2780adr: IC50 of A2780adr cells / IC50 of A2780 cells; for Toxicity toward cancer cells compared to that toward CCD-19Lu cells, A2780adr: IC50 of CCD-19Lu cells / IC50 of A2780adr; for Toxicity toward cancer cells compared to that toward MIHA cells, A2780adr: IC50 of MIHA cells / IC50 of A2780adr; for Toxicity toward cancer cells compared to that toward NCM460 cells, A2780adr: IC50 of NCM460 cells / IC50 of A2780adr
Method: (§1) In vitro cytotoxicity assays. HeLa, NCI-H460, HCT116, A2780, A2780cis and
(§2) cells), respectively, were seeded in 96-well plates for 24 h. The cells were then treated with a serial concentration of gold(III) complexes and incubated at 37 °C under a 5% CO2 atmosphere for 72 h. For nanostructures of 1, 2 and NC1, they were dissolved in
(§3) cisplatin were dissolved in culture medium-DMSO solution mixture (99:1, v/v).
(§4) After incubation for 72 h, MTT in PBS solution (5 mg/mL, 10 μL) was added to each well. The plates were incubated at 37 °C under a 5% CO2 atmosphere for another 4 h, and the cells were lysed by the addition of SDS solution (10%, w/w) with 0.01 M HCl (100 μL). After incubation in dark at 37 °C overnight, the cell viability after treatment was determined by a microtitre plate reader monitoring at the absorbance at 590 nm,

NCI-H460 = assay: In vitro cytotoxicity, MTT assay; type: cell-based, human; conditions: for Toxicity toward cancer cells compared to that toward CCD-19Lu cells, NCI-H460: IC50 of CCD-19Lu cells / IC50 of NCI-H460; for Toxicity toward cancer cells compared to that toward MIHA cells, NCI-H460: IC50 of MIHA cells / IC50 of NCI-H460; for Toxicity toward cancer cells compared to that toward NCM460 cells, NCI-H460: IC50 of NCM460 cells / IC50 of NCI-H460; for IC50: NCI-H460, MTT assay, 72 h incubation
Method: as §1, §2, §3, §4

NCM460 = assay: In vitro cytotoxicity, MTT assay; type: cell-based, human; conditions: 72 h incubation
Method: as §1, §2, §3, §4

HCT116 cells = assay: Hydrolysis in live cells, UPLC-QTOF-MS of cell lysates; type: in vitro ADME, human; conditions: 2 μM, 24 h
Method: Hydrolysis of the gold(III) complexes in live cells was examined by ultra-performance liquid chromatography coupled quadrupole-time-of-flight mass spectrometry (UPLC-QTOF-MS). Colon cancer cells (HCT116) were treated with 1, 2 and 3 (2 μM) for 24 h, harvested and lysed in an acetonitrile–water solution mixture (3 : 1, v/v) prior to UPLC-QTOF-MS analysis. […] Therefore, the peak is attributable to the major metabolite of 1 formed in HCT116 cells. […] This should be attributable to the higher stability of the amide bond versus the ester bond in vitro. […]
which reflected the amount of blue formazan formed. IC50 values were then determined by CompuSyn S6 from three independent measurements.
Study on the release of hydrolyzed product from 1 and 2 in aqueous buffer solutions by ICP-MS. The nanostructures of gold(III) complex was dissolved in PBS solution (pH 7.4; 1 mg/mL) or sodium acetate buffer solution (pH 4.0; 1 mg/mL) and was dialyzed against 1 L of the buffer solution at 37 °C using semipermeable minidialysis tubes (molecular weight cut-off = 1,000 Da; GE Healthcare). At a predetermined time, an aliquot of solution was removed and dissolved in HNO3/HCl solution mixture (9:1, v/v; volume of aliquot: volume of acid mixture = 1:3). The solution mixture was heated at 65 °C with shaking overnight, and the gold content was determined by ICP-MS from three independent aliquots.
Study on the hydrolysis of 1 and 2 in aqueous buffer solutions by 1H NMR. […]
The flow rate was 0.4 mL/min and the injection volume was 2 µL. The UPLC-QTOF-MS chromatograms of 1, 3, 4 and solvent control in acetonitrile were also recorded for the interpretation of UPLC-QTOF-MS chromatograms of the cell lysate. […]
Au1a (2 µM; with 1 vol% DMSO). […] An aliquot of the cell suspension was subjected to Bio-rad protein assay with a microtitre plate reader at the absorbance at 595 nm, using bovine serum albumin as the protein standard. […] The solution mixture was heated at 65 °C with shaking overnight, and the gold content was determined by ICP-MS. […]

CCD-19Lu = assay: In vitro cytotoxicity, MTT assay; type: cell-based, human; conditions: 72 h incubation
Method: as §1, §2, §3, §4

A2780 = assay: In vitro cytotoxicity, MTT assay; type: cell-based, human; conditions: for IC50: A2780, MTT assay, 72 h incubation; for Toxicity toward cancer cells compared to that toward CCD-19Lu cells, A2780: IC50 of CCD-19Lu cells / IC50 of A2780; for Toxicity toward cancer cells compared to that toward NCM460 cells, A2780: IC50 of NCM460 cells / IC50 of A2780; for Toxicity toward cancer cells compared to that toward MIHA cells, A2780: IC50 of MIHA cells / IC50 of A2780
Method: as §1, §2, §3, §4

HeLa = assay: In vitro cytotoxicity, MTT assay; type: cell-based, human; conditions: for IC50: HeLa; for Toxicity toward cancer cells compared to that toward CCD-19Lu cells, HeLa: IC50 of CCD-19Lu cells / IC50 of HeLa; for Toxicity toward cancer cells compared to that toward MIHA cells, HeLa: IC50 of MIHA cells / IC50 of HeLa; for Toxicity toward cancer cells compared to that toward NCM460 cells, HeLa: IC50 of NCM460 cells / IC50 of HeLa
Method: as §1, §2, §3, §4

A2780cis = assay: In vitro cytotoxicity, MTT assay; type: cell-based, human; conditions: for IC50: A2780cis, MTT assay, 72 h incubation; for Resistance found in A2780cis: IC50 of A2780cis cells / IC50 of A2780 cells; for Toxicity toward cancer cells compared to that toward CCD-19Lu cells, A2780cis: IC50 of CCD-19Lu cells / IC50 of A2780cis; for Toxicity toward cancer cells compared to that toward NCM460 cells, A2780cis: IC50 of NCM460 cells / IC50 of A2780cis; for Toxicity toward cancer cells compared to that toward MIHA cells, A2780cis: IC50 of MIHA cells / IC50 of A2780cis
Method: as §1, §2, §3, §4

MIHA = assay: In vitro cytotoxicity, MTT assay; type: cell-based
Method: as §1, §2, §3, §4

HCT116 = assay: In vitro cytotoxicity, MTT assay; type: cell-based, human; conditions: for IC50: HCT116, MTT assay, 72 h incubation; for Toxicity toward cancer cells compared to that toward CCD-19Lu cells, HCT-116: IC50 of CCD-19Lu cells / IC50 of HCT-116; for Toxicity toward cancer cells compared to that toward MIHA cells, HCT-116: IC50 of MIHA cells / IC50 of HCT-116; for Toxicity toward cancer cells compared to that toward NCM460 cells, HCT-116: IC50 of NCM460 cells / IC50 of HCT-116
Method: as §1, §2, §3, §4

[1] = MTT assay, 72 h incubation, read-out: IC50
[2] = 72 h, read-out: Total dose at IC50

Row | Compound | IC50 (A2780adr; [1]) [nM] | Resistance found in A2780adr (A2780adr) | Toxicity toward cancer cells compared to that toward MIHA cells, A2780adr (A2780adr) | Toxicity toward cancer cells compared to that toward NCM460 cells, A2780adr (A2780adr) | Toxicity toward cancer cells compared to that toward MIHA cells, NCI-H460 (NCI-H460) | Toxicity toward cancer cells compared to that toward NCM460 cells, NCI-H460 (NCI-H460) | IC50 (NCI-H460) [nM] | IC50 (NCM460) [nM] | hydrolysis / release of [Au(TPP–COOH)]+ in cells (HCT116 cells) | IC50 (CCD-19Lu) [nM] | IC50 (A2780) [nM] | Toxicity toward cancer cells compared to that toward NCM460 cells, A2780 (A2780) | IC50 (HeLa; [1]) [nM] | Toxicity toward cancer cells compared to that toward MIHA cells, HeLa (HeLa) | Toxicity toward cancer cells compared to that toward NCM460 cells, HeLa (HeLa) | IC50 (A2780cis) [nM] | Resistance found in A2780cis (A2780cis) | Toxicity toward cancer cells compared to that toward NCM460 cells, A2780cis (A2780cis) | IC50 (MIHA; [1]) [nM] | IC50 (HCT116) [nM] | also measured
1 | COC(=O)c1ccc(C2=C3C=CC(=N3)C(c3ccccc3)=c3ccc4[n]3[Au+][n]3c(ccc32)C(c2ccccc2)=C2C=CC(=N2)C=4c2ccccc2)cc1.[Cl-] [Compound 3, [Au(TPP–COOCH3)]^+] | 650 ± 60 | 3.23 | 1.1 | 0.2 | 7.0 | 1.3 | 110 ± 10 | 130 ± 10 | hydrolysis of the ester bond was also observed | 730 ± 40 | 230 ± 20 | 0.7 | 820 ± 120 | 0.9 | 0.2 | 190 ± 30 | 1.0 | 0.7 | 740 ± 90 | 90 ± 10 | Toxicity toward cancer cells compared to that toward CCD-19Lu cells, A2780adr (A2780adr): 1.1; Toxicity toward cancer cells compared to that toward CCD-19Lu cells, NCI-H460 (NCI-H460): 6.6; Toxicity toward cancer cells compared to that toward CCD-19Lu cells, A2780 (A2780): 3.2; Toxicity toward cancer cells compared to that toward CCD-19Lu cells, HeLa (HeLa): 0.9; Toxicity toward cancer cells compared to that toward CCD-19Lu cells, A2780cis (A2780cis): 3.8; Toxicity toward cancer cells compared to that toward CCD-19Lu cells, HCT-116 (HCT116): 8.1; Toxicity toward cancer cells compared to that toward MIHA cells, HCT-116 (HCT116): 7.7; Toxicity toward cancer cells compared to that toward NCM460 cells, HCT-116 (HCT116): 1.4
2 | [Au(TPP–COO–PEG5000–OCH3)]Cl [Compound 1] | 1510 ± 400 | 2.94 | 9.1 | 10.9 | 17.1 | 19.3 | 850 ± 70 | 16400 ± 2450 | hydrolysis of the ester bond of 1 in HCT116 cells to form [Au(TPP–COOH)]^+ | 15200 ± 1930 | 510 ± 90 | 32.2 | 1910 ± 480 | 7.6 | 8.6 | 640 ± 30 | 1.27 | 25.6 | 14500 ± 2550 | 390 ± 30 | IC50 (A2780adr; 72 h, read-out: 1 at IC50): 1510 nM; IC50 (A2780adr; [2]): 1510 nM; Toxicity toward cancer cells compared to that toward CCD-19Lu cells, A2780adr (A2780adr): 10.1; Toxicity toward cancer cells compared to that toward CCD-19Lu cells, NCI-H460 (NCI-H460): 17.9; Toxicity toward cancer cells compared to that toward CCD-19Lu cells, A2780 (A2780): 29.8; Toxicity toward cancer cells compared to that toward MIHA cells, A2780 (A2780): 28.4; IC50 (HeLa; 72 h, read-out: 1 at IC50): 1910 nM; IC50 (HeLa; [2]): 1910 nM; Toxicity toward cancer cells compared to that toward CCD-19Lu cells, HeLa (HeLa): 8.0; Toxicity toward cancer cells compared to that toward CCD-19Lu cells, A2780cis (A2780cis): 23.8; Toxicity toward cancer cells compared to that toward MIHA cells, A2780cis (A2780cis): 22.7; IC50 (MIHA; 72 h, read-out: 1 at IC50): 14500 nM; IC50 (MIHA; [2]): 14500 nM; Toxicity toward cancer cells compared to that toward CCD-19Lu cells, HCT-116 (HCT116): 39.0; Toxicity toward cancer cells compared to that toward MIHA cells, HCT-116 (HCT116): 37.2; Toxicity toward cancer cells compared to that toward NCM460 cells, HCT-116 (HCT116): 42.1
3 | [Au(TPP–CONH–PEG5000–OCH3)]Cl [Compound 2] | > 120000 | > 9.09 | < 1.0 | < 0.6 | 4.7 | 2.9 | 24700 ± 4620 | 71000 ± 6420 | no release of [Au(TPP–COOH)]^+ can be found | > 100000 | 13400 ± 180 | 5.3 | 46500 ± 4400 | 2.5 | 1.5 | 47200 ± 8620 | 3.57 | 1.5 | 115000 ± 17100 | 8240 ± 220 | Toxicity toward cancer cells compared to that toward MIHA cells, A2780 (A2780): 8.6; Toxicity toward cancer cells compared to that toward MIHA cells, A2780cis (A2780cis): 2.4; Toxicity toward cancer cells compared to that toward MIHA cells, HCT-116 (HCT116): 14.0; Toxicity toward cancer cells compared to that toward NCM460 cells, HCT-116 (HCT116): 8.6
